From paper PMC3285443 (European Journal of Pharmaceutical Sciences, 2010)
Values after ≈ are worked out from the molar mass of the structure shown. Read-outs that look alike come from different tables or passages of the source.

How the values were obtained:
[1] = experimental LogP determination; conditions: for logP at 24 h: 1-octanol / 0.1 M sodium phosphate buffer, pH 7.4
[2] = cassette-dosing oral pharmacokinetic screening in dogs; conditions: dog; for AUC / half-life: female, Labrador retriever, plasma, po, 0.3 mg/kg; for C24/IC50 (ratio of blood concentration over the IC50 with recombinant human sEH after 24 hour): n=1
[3] = compartmental pharmacokinetics after i.v. administration in dogs; conditions: female, Labrador retriever, dog, plasma, iv
[4] = compartmental pharmacokinetics after oral gavage; conditions: female, Labrador retriever, dog, plasma, 0.3 mg/kg
[5] = in vivo; conditions: female, Labrador retriever, dog, po, 0.3 mg/kg
[6] = in vivo; conditions: female, Labrador retriever, dog, iv
[7] = physchem; conditions: 25 °C, pH 7.4, aqueous buffer, thermodynamic from solid
[8] = water solubility determination; conditions: 0.1 M sodium phosphate buffer (pH 7.4), 25°C, 24 hours
[9] = target: T1, purified human recombinant sEH (Homo sapiens, UniProt P34913); type: biochemical
T1 sequence (P34913 1-555): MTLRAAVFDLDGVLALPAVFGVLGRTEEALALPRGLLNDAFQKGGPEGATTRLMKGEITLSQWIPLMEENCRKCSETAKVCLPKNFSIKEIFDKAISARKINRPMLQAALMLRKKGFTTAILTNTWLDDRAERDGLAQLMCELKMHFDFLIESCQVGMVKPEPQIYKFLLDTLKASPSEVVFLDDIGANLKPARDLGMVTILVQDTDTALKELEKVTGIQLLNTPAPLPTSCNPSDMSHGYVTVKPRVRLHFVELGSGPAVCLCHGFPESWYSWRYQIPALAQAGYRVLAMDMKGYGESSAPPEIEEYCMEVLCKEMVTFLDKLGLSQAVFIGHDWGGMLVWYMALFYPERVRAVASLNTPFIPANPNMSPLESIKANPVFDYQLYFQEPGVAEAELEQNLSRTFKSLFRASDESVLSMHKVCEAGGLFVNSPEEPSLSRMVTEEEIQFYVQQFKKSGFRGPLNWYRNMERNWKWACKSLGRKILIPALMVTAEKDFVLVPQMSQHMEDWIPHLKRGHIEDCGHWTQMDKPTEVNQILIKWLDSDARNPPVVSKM

[10] = target: T2, recombinant murine sEH (Mus musculus, UniProt P34914); test: fluorescent assay with CMNPC substrate, recombinant mouse sEH; type: biochemical
T2 sequence (P34914 1-554): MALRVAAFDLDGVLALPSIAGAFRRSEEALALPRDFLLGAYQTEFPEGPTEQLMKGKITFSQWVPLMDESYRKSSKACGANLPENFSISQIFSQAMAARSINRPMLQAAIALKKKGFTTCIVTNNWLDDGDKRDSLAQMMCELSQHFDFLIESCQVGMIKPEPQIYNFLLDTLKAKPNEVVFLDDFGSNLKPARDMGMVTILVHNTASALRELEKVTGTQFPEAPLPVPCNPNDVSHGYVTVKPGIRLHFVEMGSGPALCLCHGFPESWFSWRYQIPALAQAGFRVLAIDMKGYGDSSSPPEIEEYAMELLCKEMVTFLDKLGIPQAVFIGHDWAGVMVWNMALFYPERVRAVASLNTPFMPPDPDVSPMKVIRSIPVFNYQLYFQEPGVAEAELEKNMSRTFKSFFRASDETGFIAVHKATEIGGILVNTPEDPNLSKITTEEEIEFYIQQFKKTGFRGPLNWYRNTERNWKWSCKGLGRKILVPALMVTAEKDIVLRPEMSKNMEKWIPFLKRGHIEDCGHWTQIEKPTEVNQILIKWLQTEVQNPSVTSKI

[11] = target: T3, recombinant human soluble epoxide hydrolase (Homo sapiens, UniProt P34913); test: fluorescent assay with CMNPC substrate, recombinant human sEH; type: biochemical
T3 sequence (P34913 1-555): T1 sequence (P34913 1-555)

[12] = target: human sEH (human liver cytosol) (Homo sapiens, UniProt P34913); test: LC/MS assay with 14,15-EET substrate, human liver cytosol; type: biochemical
[13] = target: T4, human recombinant sEH (Homo sapiens, UniProt P34913); test: radioactive t-DPPO assay, purified recombinant human sEH; type: biochemical
T4 sequence (P34913 1-555): T1 sequence (P34913 1-555)

[14] = target: T5, recombinant rat sEH (Rattus norvegicus, UniProt P80299); test: fluorescent assay with CMNPC substrate, recombinant rat sEH; type: biochemical
T5 sequence (P80299 1-554): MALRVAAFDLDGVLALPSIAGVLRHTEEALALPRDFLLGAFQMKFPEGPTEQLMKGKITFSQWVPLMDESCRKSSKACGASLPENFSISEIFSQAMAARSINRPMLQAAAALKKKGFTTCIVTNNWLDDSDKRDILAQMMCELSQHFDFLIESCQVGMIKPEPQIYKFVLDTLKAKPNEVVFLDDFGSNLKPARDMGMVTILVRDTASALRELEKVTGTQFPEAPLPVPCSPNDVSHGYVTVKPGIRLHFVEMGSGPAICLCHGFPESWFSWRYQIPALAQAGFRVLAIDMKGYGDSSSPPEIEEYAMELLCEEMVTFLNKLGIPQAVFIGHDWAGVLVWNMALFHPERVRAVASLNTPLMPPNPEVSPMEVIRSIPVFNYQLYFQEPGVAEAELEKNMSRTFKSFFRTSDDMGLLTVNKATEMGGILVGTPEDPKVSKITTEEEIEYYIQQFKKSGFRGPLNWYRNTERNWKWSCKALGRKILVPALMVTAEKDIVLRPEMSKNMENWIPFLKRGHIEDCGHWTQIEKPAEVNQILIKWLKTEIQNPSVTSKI

| logP at 24 h [1] | SMILES | AUC [2] [µM·h] | half-life [2] [h] | IC50 [10] [nM] | IC50 [13] [nM] | IC50 [14] [nM] | C24/IC50 (ratio of blood concentration over the IC50 with recombinant human sEH after 24 hour) ([2]; oral 0.3 mg/kg cassette dosing) | also measured |
| --- | --- | --- | --- | --- | --- | --- | --- | --- |
| 3 | O=C(O)CCCCCCCCCCCNC(=O)NC12CC3CC(CC(C3)C1)C2 [compound 1, 12-(3-adamantane-1-yl-ureido)-dodecanoic acid] | – | – | – | – | – | – | – |
| 2.6 | CCOCCOCCOCCCCCNC(=O)NC12CC3CC(CC(C3)C1)C2 [compound 3, 1-adamantan-1-yl-3-{5-[2-(2-ethoxyethoxy)ethoxy]pentyl}urea] | 0.04 | 1 | – | – | – | – | clearance [3]: 96.7 mL/min/kg; half-life [3]: 9.6 ± 1.8 min; AUC [4]: 0.03 µM·h; Cmax [4]: 20 ± 10 nM; Tmax [4]: 0.2 ± 0.1 h; half-life [4]: 1.7 ± 1 h |
| – | CC(=O)N1CCC(NC(=O)NC23CC4CC(CC(C4)C2)C3)CC1 [compound 14, N-(1-acetylpiperidin-4-yl)-N’-(adamant-1-yl) urea] | – | – | – | – | – | – | Cmax [5]: 80 ± 30 nM; Tmax [5]: 1 ± 0.7 h; half-life [5]: 1.7 ± 0.4 h; clearance [6]: 40 mL/min/kg; half-life [6]: 0.6 ± 0.1 h; solubility at 24 h [7]: 490 µg/mL (≈ 1530 µM) |
| – | CC(=O)N1CCC(NC(=O)Nc2ccc(OC(F)(F)F)cc2)CC1 [compound 24] | – | – | – | – | – | – | T1/2 (terminal half-life) ([2]; oral 0.3 mg/kg cassette dosing, n=1, non-compartmental): >24 h; Water solubility [8]: 51 µg/mL; LogP (pH 7.4) ([1]; octanol / 0.1 M sodium phosphate buffer at pH 7.4): 2.3 |
| – | CC(=O)N1CCC(NC(=O)NC2CCCCCC2)CC1 [compound 31, 1-cycloheptyl-3-(1-acetylpiperidin-4-yl) urea] | 3.67 | 5.2 | 12 | 300 | 7 | 1.0 | IC50 ([11]; IC50, CMNPC, Human): 28 nM |
| – | COC(=O)c1ccc(NC(=O)NC23CC4CC(CC(C4)C2)C3)cc1O [compound 62, 4-(3-adamantane-1-yl-ureido)-2-hydroxyl-benzoic acid methyl ester] | 0.21 | – | 10 | 6 | 8 | 0.7 | IC50 [11]: 3 nM |
| – | O=C(Nc1ccc(Cl)cc1)Nc1ccc(Cl)c(Cl)c1 [compound 74, triclocarban, reference compound] | 0.03 | 0.5 | – | – | – | <0.1 | – |

| SMILES | logP at 24 h [1] | AUC [2] [µM·h] | half-life [2] [h] | IC50 [10] [nM] | IC50 [13] [nM] | IC50 [14] [nM] | C24/IC50 (ratio of blood concentration over the IC50 with recombinant human sEH after 24 hour) ([2]; oral 0.3 mg/kg cassette dosing) | also measured |
| --- | --- | --- | --- | --- | --- | --- | --- | --- |
| CS(=O)(=O)N1CCC(NC(=O)Nc2ccc(OC(F)(F)F)cc2)CC1 [compound 27, 1-(1-methylsulfonyl-piperidin-4-yl)-3-(4-trifluoromethoxy-phenyl)-urea] | 1.9 | 28.3 | > 24 | 5 | 26 | 9 | – | IC50 ([9]; IC50 on human sEH in buffer, buffer): 150 nM; IC50 ([9]; IC50 on human sEH incubated in sEH depleted canine liver cytosol, sEH depleted canine liver cytosol supplemented with purified human recombinant sEH): 120 nM; IC50 ([11]; IC50, CMNPC, Human, purified recombinant enzyme at […]): 3 nM; IC50 [12]: 26 nM |
